# US20230190718A1, “METHODS FOR THE TREATMENT OF PANCREATITIS AND PREVENTION OF PANCREATIC CANCER” (BOARD OF REGENTS, THE UNIVERSITY OF TEXAS SYSTEM, priority 2020, published 2023)
# Entries after “also recorded” stand apart in the source; their conditions may differ.
# Tested on: Caerulein-induced pancreatitis
# Test: Pretreatment with ADM inducers in caerulein-induced pancreatitis: histology (ADM) and CD45 infiltration
# Format: in vivo, mice
# Settings: 40 mg/kg b.i.d oral gavage before and during Caerulein; 24 hours after end of Caerulein injections
# Description: Epigenetic modifiers: Recently, the emerging role of epigenetic regulation has led to the development of a wide spectrum of small molecules targeting selectively bromodomain and extra-terminal (BET) protein family which are currently under evaluation in preclinical model of hematological malignancies and solid tumors (Asangani et al., 2014; Delmore et al., 2011; Filippakopoulos et al., 2010). Leveraging the persistent chromatin modifications induced by an acute inflammatory event, the possibility of limiting the detrimental effects of repeated pancreatitis was tested through the administration of INCB054329, a BRD4 inhibitor currently in phase I-II clinical studies in patients with advanced malignancies (Falchook et al., 2019).
# Induction of acute pancreatitis. […] Control mice received injections of pyrogen-free PBS. Mice were examined daily for health conditions and sacrificed at the indicated time points by CO2 asphyxiation and cervical dislocation.
# DAPI nuclear counterstaining was also performed.
smiles,measurement,value
Cc1noc(C)c1-c1ccc2[nH]c(=O)n3c2c1OC[C@@H]3c1ccccn1 [INCB054329],ADM induction (histological evaluation),massive induction of ADM; also recorded: significant ADM induction
same,inflammatory infiltration (CD45 immunostaining),dramatic reduction of inflammatory infiltration; also recorded: strong suppression of inflammation
